Measured values as given in US11167007B2, “FOXM1 modulators and uses thereof” (City of Hope, priority 2016, dated 2021).

Experiments:
[1] = target: T1, AR (Homo sapiens, UniProt P10275); experiment: FRET-based AR conformation change reporter (CARY) in HEK293 kidney cells; format: cell-based; parameters: Full length AR with cyan fluorescent protein (CFP) or yellow fluorescent protein (YFP) fused to either end (CARY); expressed in transfected cells
T1 sequence (P10275 1-920): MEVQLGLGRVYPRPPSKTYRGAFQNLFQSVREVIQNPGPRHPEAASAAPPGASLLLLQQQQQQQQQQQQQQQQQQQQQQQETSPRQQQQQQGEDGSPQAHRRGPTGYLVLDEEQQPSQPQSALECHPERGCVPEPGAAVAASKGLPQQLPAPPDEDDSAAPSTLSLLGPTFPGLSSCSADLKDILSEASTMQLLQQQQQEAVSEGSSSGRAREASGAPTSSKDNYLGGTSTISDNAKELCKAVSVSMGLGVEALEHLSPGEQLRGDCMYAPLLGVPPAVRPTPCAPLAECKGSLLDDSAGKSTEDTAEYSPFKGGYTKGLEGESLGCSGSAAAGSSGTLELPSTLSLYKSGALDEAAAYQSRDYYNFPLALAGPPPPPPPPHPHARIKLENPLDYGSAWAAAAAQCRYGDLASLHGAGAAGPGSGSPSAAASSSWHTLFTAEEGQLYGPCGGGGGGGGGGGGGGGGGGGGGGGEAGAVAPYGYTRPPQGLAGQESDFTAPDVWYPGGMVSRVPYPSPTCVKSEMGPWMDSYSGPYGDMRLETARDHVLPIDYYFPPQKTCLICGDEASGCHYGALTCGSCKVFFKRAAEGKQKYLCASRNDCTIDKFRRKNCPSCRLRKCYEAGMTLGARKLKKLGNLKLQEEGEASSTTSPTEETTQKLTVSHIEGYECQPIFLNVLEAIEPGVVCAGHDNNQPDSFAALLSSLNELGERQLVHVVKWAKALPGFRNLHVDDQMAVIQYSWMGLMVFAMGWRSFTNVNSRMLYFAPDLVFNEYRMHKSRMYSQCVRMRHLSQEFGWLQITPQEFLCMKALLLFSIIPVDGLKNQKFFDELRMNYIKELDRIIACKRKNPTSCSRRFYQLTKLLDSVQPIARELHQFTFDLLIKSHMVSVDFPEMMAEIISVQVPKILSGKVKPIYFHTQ
Procedure: Creation of stable C-AR-Y reporter cell lines. Cell lines listed above were either transfected with a plasmid or a virus containing the CFP-AR-YFP construct preceding an IRES and hygromycin resistance gene and clonal stable cell lines selected. Qualification criteria for the transfected cell lines were described by Jones et al, ACS Chem Biol, 3(7):412-8 (2008).
Screen for AR-modulators. Screening was performed essentially as described by Jones et al, ACS Chem Biol, 3(7):412-8 (2008). Briefly, C-AR-Y reporter GTI-7 were transferred to 96 well plates and treated with library compounds for 24 hours. […] The compounds to be tested were from the NCI/DTP Open Chemical Repository's Approved Oncology Drugs Set II, Diversity Set II and Mechanistic Set. […] After 24 hours, medium was aspirated and FRET was measured as previously described using a monochromator-based fluorescence plate reader (M1000, Tecan, Inc.). Jones et al, ACS Chem Biol, 3(7):412-8 (2008). […]
In order to identify potential cell-type selective AR modulators, the FRET-based assay of AR conformation change was utilized. […] This produces an accurate and quantifiable read-out of AR activity. […] Candidate hits were then further evaluated by dose response. […] In addition to FRET, AR transcriptional activity was also assessed in several cell lines by transfecting cells with a luciferase reporter driven by the human PSA promoter. […]

[2] = test system: AR activity in muscle or SV; experiment: Weights of levator ani muscle and seminal vesicles at end of study; format: in vivo, rat; conditions: rats, compared to controls
Procedure: Animals and Drugs. This study was carried out in strict accordance with the recommendations in the Guide for the Care and Use of Laboratory Animals of the National Institutes of Health. All experiments were performed under the IUCAC approval of City of Hope. Animals were purchased from Jackson Laboratory (Bar Harbor, Main). For the pilot pharmacokinetic experiment, nine male Sprague Dawley rats (n=3) were administered 1, 10, or 100 mg/kg intraperitoneal injections thrice per week for four weeks. One hour following the final dose, blood and spinal fluid were collected and analyzed by mass spectrometry. For the efficacy experiment, rats were divided into 3 groups (n=7) as follows: intact, castrated, and thiostrepton. […] Following a treatment period of 7 days, rats were euthanized and organs harvested, weighed and processed for quantitative RT-PCR.
Androgens are known to control the growth and maintenance of the skeletal muscle and seminal vesicles. […] In order to investigate the impact of thiostrepton on these tissues, their weights at the end of the study were assessed. […] Because an equivalent androgen-dependent change in weight cannot be tested in motor neurons, the levels of tissue-selective androgen regulate genes, as a marker of AR activity, were assessed. […] RNA was isolated from spinal cord and LA muscle tissue and transcript levels were measured by RT-qPCR (FIG. 5F, FIG. 5H). […]

| Structure (SMILES) | AR inhibitor activity in words [1] | levator ani (LA) muscle weight [2] | seminal vesicles (SV) weight [2] |
| --- | --- | --- | --- |
| C=C(NC(=O)C(=C)NC(=O)c1csc(C2=N[C@@H]3c4csc(n4)[C@H]4NC(=O)c5csc(n5)[C@H]([C@](C)(O)[C@@H](C)O)NC(=O)[C@H]5CSC(=N5)/C(=C/C)NC(=O)[C@H]([C@@H](C)O)NC(=O)c5csc(n5)[C@]3(CC2)NC(=O)[C@H](C)NC(=O)C(=C)NC(=O)C(=C)NC(=O)[C@H](C(C)C)N[C@@H]2C=Cc3c([C@H](C)O)cc(nc3[C@H]2O)C(=O)O[C@@H]4C)n1)C(N)=O [NSC285116, siomycin A] | some activity | – | – |
| C=C(NC(=O)C(=C)NC(=O)c1csc(C2=N[C@@H]3c4csc(n4)[C@H]4NC(=O)c5csc(n5)[C@H]([C@](C)(O)[C@@H](C)O)NC(=O)[C@H]5CSC(=N5)/C(=C/C)NC(=O)[C@H]([C@@H](C)O)NC(=O)c5csc(n5)[C@]3(CC2)NC(=O)[C@H](C)NC(=O)C(=C)NC(=O)[C@H](C)NC(=O)[C@H]([C@@H](C)CC)N[C@@H]2C=Cc3c([C@H](C)O)cc(nc3[C@H]2O)C(=O)O[C@@H]4C)n1)C(N)=O [thiostrepton] | – | did not change | did not change |
